From paper PMC3971528, “Leishmania infantum EndoG Is an Endo/Exo-Nuclease Essential for Parasite Survival” (PLoS ONE, 2014)

Target: T1, LiEndoG (rLiEndoG) (Leishmania infantum, UniProt B0ZTD3)
T1 construct: gene endog; recombinant from pRSET-LiendoG in E. coli BL21(DE3) pLys
T1 sequence (B0ZTD3 1-510): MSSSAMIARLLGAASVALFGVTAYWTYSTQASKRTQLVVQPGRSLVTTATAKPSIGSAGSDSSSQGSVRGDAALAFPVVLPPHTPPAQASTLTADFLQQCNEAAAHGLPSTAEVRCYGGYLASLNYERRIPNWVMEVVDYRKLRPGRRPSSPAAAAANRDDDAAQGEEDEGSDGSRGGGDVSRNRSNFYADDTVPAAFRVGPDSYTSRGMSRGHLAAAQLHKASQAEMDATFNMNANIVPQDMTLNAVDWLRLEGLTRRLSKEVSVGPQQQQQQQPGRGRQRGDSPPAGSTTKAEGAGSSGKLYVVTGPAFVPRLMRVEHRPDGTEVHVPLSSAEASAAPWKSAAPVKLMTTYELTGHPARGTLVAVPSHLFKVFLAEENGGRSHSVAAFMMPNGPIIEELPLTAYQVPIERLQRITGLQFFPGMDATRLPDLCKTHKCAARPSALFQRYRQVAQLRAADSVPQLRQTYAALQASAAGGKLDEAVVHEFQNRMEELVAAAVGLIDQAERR
Test: fluorescence nuclease assay, FAM/TAMRA double-stranded oligonucleotide probe
Format: biochemical
Conditions: inhibitor; 30 pmol probe, 2.5 ng/mL LiEndoG, 40 min; increasing Lei49

## Cc1cn([C@H]2C[C@H](OC(=O)CCC(=O)OCCOC(=O)[C@@H](N)C(C)C)[C@@H](COC(c3ccccc3)(c3ccccc3)c3ccccc3)O2)c(=O)[nH]c1=O [Lei49, 2-[(S)-2-Amino-3-methylbutanoyl-oxy]ethyl [(2R,3S,5R)-5-(thymin-1-yl)-2-(trityloximethyl)tetrahydrofuran-3-yl] succinate]
  fluorescence nuclease assay, FAM/TAMRA double-stranded oligonucleotide probe: Inhibition of the nuclease activity of LiEndoG by Lei49.
